Measured values taken from patent US20100298141A1, “SUBSTITUTED PYRIDINE N-OXIDE HERBICIDES” (E. I. DU PONT DE NEMOURS AND COMPANY, priority 2007, published 2010).

Columns and labels:
Test in all cases: Test F preemergence test
Conditions in all cases: scale 0 to 100
[1] = tested on: johnsongrass; format: in vivo, Sorghum halepense
Description: (§1) Seeds of plant species selected from bermudagrass (Cynodon dactylon), Surinam grass (Brachiaria decumbens), large crabgrass (Digitaria sanguinalis), green foxtail (Setaria viridis), goosegrass (Eleusine indica), johnsongrass (Sorghum halepense), kochia (Kochia scoparia), pitted morningglory (Ipomoea lacunosa), purple nutsedge (Cyperus rotundus), common ragweed (Ambrosia elation), mustard (Brassica nigra), guineagrass (Panicum maximum), […] (Paspalum dilatatum), barnyardgrass (Echinochloa crus-galli), southern sandbur (Cenchrus echinatus), common sowthistle (Sonchus oleraceous), prickly […] spinosa), Italian ryegrass (Lolium multiflorum), common purslane (Portulaca oleracea), broadleaf signalgrass (Brachiaria platyphylla), common groundsel (Senecio vulgaris), common chickweed (Stellaria media), Virginia dayflower (Commelina virginica), annual bluegrass (Poa annua), naked crabgrass (Digitaria nuda), […] cochinchinensis), quackgrass (Elytrigia repens), Canada horseweed (Conyza canadensis), field bindweed (Convolvulus arvensis), […] (Bidens bipinnata), common mallow (Malva sylvestris), Russian thistle (Salsola kali), and sugarcane (Saccharum officinarum) were planted and treated preemergence with test chemicals formulated in a non-phytotoxic solvent mixture which included a surfactant. At a different time, sugarcane was treated with postemergence applications of some of the test chemicals formulated in the same manner. Plants were approximately 3- to 4-leaf stage for the postemergence treatments. Treated plants and controls were maintained in a greenhouse for 14 to 21 days, after which time all species were compared to controls and visually evaluated. […] A dash (-) response means no test result.

[2] = tested on: common chickweed; format: in vivo, Stellaria media
Description: as §1

[3] = tested on: spanishneedles; format: in vivo, Bidens bipinnata
Description: as §1

[4] = tested on: common sowthistle; format: in vivo, Sonchus oleraceous
Description: as §1

[5] = tested on: Canada horseweed; format: in vivo, Conyza canadensis
Description: as §1

| SMILES | Plant response rating, Johnsongrass ([1]; 16 g ai/ha, preemergence) | Johnsongrass plant response rating ([1]; 125 g ai/ha, preemergence) | Plant response rating, Johnsongrass ([1]; Preemergence, 31 g ai/ha) | Chickweed plant response rating ([2]; 125 g ai/ha, preemergence) | Plant response rating, Chickweed ([2]; Preemergence, 31 g ai/ha) | Plant response rating, Spanishneedles ([3]; 16 g ai/ha, preemergence) | Spanishneedles plant response rating ([3]; 125 g ai/ha, preemergence) | Plant response rating, Spanishneedles ([3]; Preemergence, 62 g ai/ha) | Plant response rating, Spanishneedles ([3]; Preemergence, 31 g ai/ha) | Johnsongrass plant response rating ([1]; 62 g ai/ha, Preemergence) | Sowthistle plant response rating ([4]; 125 g ai/ha, preemergence) | Plant response rating, Sowthistle ([4]; Preemergence, 62 g ai/ha) | Plant response rating, Sowthistle ([4]; Preemergence, 31 g ai/ha) | Chickweed plant response rating ([2]; 62 g ai/ha, Preemergence) | Plant response rating, Horseweed ([5]; 16 g ai/ha, preemergence) | Horseweed plant response rating ([5]; 62 g ai/ha, Preemergence) | Horseweed plant response rating ([5]; 125 g ai/ha, preemergence) | Plant response rating, Horseweed ([5]; Preemergence, 31 g ai/ha) | Plant response rating, Johnsongrass ([1]; Preemergence, 16 g ai/ha) | other results |
| --- | --- | --- | --- | --- | --- | --- | --- | --- | --- | --- | --- | --- | --- | --- | --- | --- | --- | --- | --- | --- |
| CC(Oc1c(C[S+]([O-])c2ccc(Cl)c[n+]2[O-])c(C(F)(F)F)nn1C)C(F)(F)F (centres unmarked) [Compound 87] | 40 | 100 | 75 | 100 | 100 | 0 | 100 | 100 | 0 |  |  |  |  |  |  |  |  |  |  | Plant response rating, Johnsongrass ([1]; Preemergence, 62 g ai/ha): 95; Plant response rating, Chickweed ([2]; 16 g ai/ha, preemergence): 0; Plant response rating, Chickweed ([2]; Preemergence, 62 g ai/ha): 100 |
| CCn1nc(C(F)(F)F)c(C[S+]([O-])c2cc(C)cc[n+]2[O-])c1OCC(F)(F)F (racemic) [Compound 66] | 35 | 100 | 65 | 100 | 100 | 15 | 100 | 80 | 65 | 90 | 100 | 100 | 0 | 100 | 50 | 90 | 100 | 50 |  | Plant response rating, Sowthistle ([4]; 16 g ai/ha, preemergence): 0; Plant response rating, Chickweed ([2]; 16 g ai/ha, preemergence): 100 |
| Cn1nc(C(F)(F)F)c(CS(=O)(=O)c2cccc[n+]2[O-])c1OCC(F)(F)F [Compound 29] |  | 100 | 100 |  |  |  | 25 |  | 0 | 100 |  |  |  |  |  |  |  |  | 70 | Spanishneedles plant response rating ([3]; 62 g ai/ha, Preemergence): 0 |
| Cc1cc[n+]([O-])c(S(=O)(=O)Cc2c(C(F)(F)F)nn(C)c2Cl)c1 [Compound 19] |  | 98 | 75 | 75 | 0 |  |  |  |  | 90 | 95 |  | 0 | 0 |  | 0 | 100 | 0 | 40 | Sowthistle plant response rating ([4]; 62 g ai/ha, Preemergence): 80; Plant response rating, Chickweed ([2]; Preemergence, 16 g ai/ha): 0; Plant response rating, Horseweed ([5]; Preemergence, 16 g ai/ha): 0 |
| Cn1nc(C(F)(F)F)c(C[S+]([O-])c2ccc(Cl)c[n+]2[O-])c1OCC(F)F (centres unmarked) [Compound 85] | 40 | 98 | 75 |  |  | 50 | 100 | 100 | 50 |  | 100 | 100 | 0 |  | 25 |  | 100 | 100 |  | Plant response rating, Johnsongrass ([1]; Preemergence, 62 g ai/ha): 90; Plant response rating, Sowthistle ([4]; 16 g ai/ha, preemergence): 0; Plant response rating, Horseweed ([5]; Preemergence, 62 g ai/ha): 100 |
| Cn1nc(C(F)(F)F)c(C[S+]([O-])c2cccc[n+]2[O-])c1OCC(F)(F)F (racemic) [Compound 28] |  | 100 | 75 |  |  |  | 100 |  | 80 | 100 |  |  |  |  |  |  |  |  | 40 | Spanishneedles plant response rating ([3]; 62 g ai/ha, Preemergence): 100 |
| Cn1nc(OC(F)F)c(CS(=O)(=O)c2cccc[n+]2[O-])c1C(F)(F)F [Compound 80] | 50 | 98 | 75 |  |  | 0 | 0 | 0 | 0 | 90 |  |  |  |  | 0 | 100 | 100 | 0 |  |  |
| CCc1cc[n+]([O-])c(S(=O)(=O)Cc2c(C(F)(F)F)nn(C)c2OCC(F)(F)F)c1 [Compound 60] |  | 95 | 0 | 100 | 100 |  | 80 | 80 | 20 | 50 | 100 | 100 | 80 | 100 |  | 100 | 100 | 95 |  | Johnsongrass plant response rating ([1]; 250 g ai/ha, preemergence): 100; Sowthistle plant response rating ([4]; 250 g ai/ha, preemergence): 100; Chickweed plant response rating ([2]; 250 g ai/ha, preemergence): 100; Horseweed plant response rating ([5]; 250 g ai/ha, preemergence): 100; Spanishneedles plant response rating ([3]; 250 g ai/ha, preemergence): 100 |
| Cc1cc[n+]([O-])c(S(=O)(=O)Cc2c(C(F)(F)F)nn(C)c2OCC(F)(F)F)c1 [Compound 31] | 40 | 100 | 50 |  |  | 0 |  | 100 | 100 | 100 |  |  |  |  |  |  |  |  |  |  |
